This passage reports Ki and Kd results from patent US20260125375A1 (Pfizer Inc., priority 2022, published 2026).

For assay [1], the target named is T1, CBL-B (residues 36-427) (Homo sapiens, UniProt Q13191).
T1 construct: Purified CBL-B (residues 36-427) and C-CBL (residues 46-435) proteins from baculovirus-infected insect cells; made in house; host or cells: baculovirus-infected insect cells
In words: Ligand Displacement Assay (LDA), HTRF competitive binding against BODIPY-labeled fluorescent tracer, CBL-B. The following applies: geometric mean of the number of tests, read-out: CBL-B Ki (nM) GMean. In a few lines:
(§1)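 Ki values, given as geometric means of repeated tests, come from TR-FRET displacement of a BODIPY-labelled tracer from terbium-streptavidin-bound, AviTag-biotinylated protein made in baculovirus-infected insect cells. Compounds ran as three-fold dilutions in duplicate, […], 2% DMSO.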
(In general: Time-resolved FRET reads energy transfer from a long-lived donor to a nearby acceptor.)

Assay [2] concerns the target T2, C-CBL (residues 46-435) (Homo sapiens, UniProt P22681).
T2 construct: Purified CBL-B (residues 36-427) and C-CBL (residues 46-435) proteins from baculovirus-infected insect cells; made in house; host or cells: baculovirus-infected insect cells
T2 sequence (P22681 46-435): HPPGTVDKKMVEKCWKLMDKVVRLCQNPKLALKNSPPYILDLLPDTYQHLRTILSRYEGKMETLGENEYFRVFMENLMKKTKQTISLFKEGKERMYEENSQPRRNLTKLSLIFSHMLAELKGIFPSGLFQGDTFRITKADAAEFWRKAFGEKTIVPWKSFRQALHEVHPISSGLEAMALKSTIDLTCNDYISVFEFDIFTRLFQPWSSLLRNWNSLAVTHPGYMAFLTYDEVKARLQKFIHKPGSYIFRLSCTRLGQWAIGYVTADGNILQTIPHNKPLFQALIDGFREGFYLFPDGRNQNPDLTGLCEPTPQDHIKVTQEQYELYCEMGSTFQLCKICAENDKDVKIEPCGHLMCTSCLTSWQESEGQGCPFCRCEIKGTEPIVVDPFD
In words: Ligand Displacement Assay (LDA), HTRF competitive binding against BODIPY-labeled fluorescent tracer, C-CBL. The following applies: geometric mean of the number of tests, read-out: C-CBL Ki (nM) GMean. The procedure, abridged: as §1

The target in assay [3] is T3, WT CBL-B (36-427) (Homo sapiens, UniProt Q13191).
T3 construct: N-terminal biotinylated WT CBL-B (36-427) and C-CBL (46-435) were captured on a streptavidin (SA) coated sensor chip
Briefly: Surface Plasmon Resonance (SPR) assay, binding affinity and kinetics, CBL-B. Conditions: SPR at 10° C., biotinylated WT CBL-B (36-427) on streptavidin chip; geometric mean; read-out: CBL-B SPR Kd (nM) GMean. The procedure, abridged: (§2)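 SPR kinetics at 10° C, run either single-cycle (0.001–1 μM, 3-fold, 6 points, 120 s on, >5400 s off) or multi-cycle (10 points, 2-fold, top 10 or 100 μM, 90 s on). Proteins were N-biotinylated CBL-B (36-427) and C-CBL (46-435) on SA surfaces, in pH 7.2 HEPES, 2% DMSO.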

Assay [4] deals with T4, C-CBL (46-435) (Homo sapiens, UniProt P22681).
T4 construct: N-terminal biotinylated WT CBL-B (36-427) and C-CBL (46-435) were captured on a streptavidin (SA) coated sensor chip
T4 sequence (P22681 46-435): T2 sequence (P22681 46-435)
Briefly: Surface Plasmon Resonance (SPR) assay, binding affinity and kinetics, C-CBL. Conditions: SPR at 10° C., biotinylated C-CBL (46-435) on streptavidin chip; geometric mean; read-out: C-CBL SPR Kd (nM) GMean. The procedure, abridged:
as §2

Regarding `CNCc1nc(C(F)(F)F)cc2c(-c3cccc(C4(Cc5nncn5C)COC4)c3)n[nH]c12` [Example C52, N-methyl-1-[3-(3-{3-[(4-methyl-4H-1,2,4-triazol-3-yl)methyl]oxetan-3-yl}phenyl)-5-(trifluoromethyl)-1H-pyrazolo[3,4-c]pyridin-7-yl]methanamine], the Ki in assay [1] is 32.9 nM; in assay [2], 134 nM. Further, the Kd in assay [3] was 9.3 nM; in assay [4], 124 nM.

For `CC(N)c1nc(C(F)(F)F)cc2c(-c3cccc(C4(Cc5nncn5C)COC4)c3)n[nH]c12` (single isomer, unassigned) [Example K16, (1ξ)-1-[3-(3-{3-[(4-methyl-4H-1,2,4-triazol-3-yl)methyl]oxetan-3-yl}phenyl)-5-(trifluoromethyl)-1H-pyrazolo[3,4-c]pyridin-7-yl]ethan-1-amine], the results for the Ki in assay [1] and in assay [2] were 32 nM and 140 nM, respectively. In addition, the Kd in assay [3] came out at 15.7 nM; in assay [4], 216 nM.

As for `CC(NC1CC2(COC2)C1)c1nc(C(F)(F)F)cc2c(-c3cccc([C@H](c4nncn4C)C4CCC4)c3)n[nH]c12` (single isomer, unassigned) [Example C97], the figures for the Ki in assay [1] and in assay [2] were 31.8 nM and 141 nM, respectively. Also, the results for the Kd in assay [3] and in assay [4] were 9.6 nM and 242 nM, respectively.

Take `CN(C)Cc1nc(C(F)(F)F)cc2c(-c3cccc([C@H](c4nncn4C)C4CCC4)c3)n[nH]c12` [Example D82]: the values for the Ki in assay [1] and in assay [2] were 32.5 nM and 258 nM, respectively. The Kd in assay [3] stood at 8.7 nM; in assay [4], 213 nM.

Turning to `CC(C)NC(C)c1nc(C(F)(F)F)cc2c(-c3cccc(C4(Cc5nncn5C)COC4)c3)n[nH]c12` (single isomer, unassigned) [Example C79, N-{(1ξ)-1-[3-(3-{3-[(4-methyl-4H-1,2,4-triazol-3-yl)methyl]oxetan-3-yl}phenyl)-5-(trifluoromethyl)-1H-pyrazolo[3,4-c]pyridin-7-yl]ethyl}propan-2-amine], the Ki in assay [1] was found to be 20.4 nM; in assay [2] it was 94.1 nM. Moreover, the Kd turned out to be 3.2 nM in assay [3] and 121 nM in assay [4].

As to `CC(O)c1nc(C(F)(F)F)cc2c(-c3cccc(C4(Cc5nncn5C)COC4)c3)n[nH]c12` (single isomer, unassigned) [Example K10, (1ξ)-1-[3-(3-{3-[(4-methyl-4H-1,2,4-triazol-3-yl)methyl]oxetan-3-yl}phenyl)-5-(trifluoromethyl)-1H-pyrazolo[3,4-c]pyridin-7-yl]ethan-1-ol], the Ki in assay [1] stood at 45.1 nM; in assay [2] it was 219 nM. In addition, the dissociation constant (Kd) in assay [3] was 23.5 nM; in assay [4] it was 291 nM.

Consider `CC(N[C@@H]1CCOC1)c1nc(C(F)(F)F)cc2c(-c3cccc(C4(Cc5nncn5C)COC4)c3)n[nH]c12` (single isomer, unassigned) [Example C86], for which the results for the Ki in assay [1] and in assay [2] were 9 nM and 49.4 nM, respectively. The Kd in assay [3] was 5.1 nM; in assay [4] it was 60.3 nM.

Regarding `Cn1cnnc1[C@@H](c1cccc(-c2n[nH]c3c(C4CCCCN4)nc(C(F)(F)F)cc23)c1)C1CCC1` (single isomer, unassigned) [Example L2], the Ki in assay [1] came to 90.1 nM; in assay [2], 721 nM. Further, the Kd is 30 nM in assay [3] and 307 nM in assay [4].

As for `Cn1cnnc1[C@@H](c1cccc(-c2n[nH]c3c(CN4C[C@@H](F)[C@@H](F)C4)nc(C(F)(F)F)cc23)c1)C1CCC1` [Example C107, 3-{3-[(R)-cyclobutyl(4-methyl-4H-1,2,4-triazol-3-yl)methyl]phenyl}-7-{[(3R,4S)-3,4-difluoropyrrolidin-1-yl]methyl}-5-(trifluoromethyl)-1H-pyrazolo[3,4-c]pyridine], the Ki worked out at 33.9 nM in assay [1] and 363 nM in assay [2]. Moreover, the Kd in assay [3] turned out to be 3.7 nM; in assay [4], 158 nM.

With `C[C@H](c1nc(C(F)(F)F)cc2c(-c3cccc(C4(Cc5nncn5C)COC4)c3)n[nH]c12)N1CCC1` (single isomer, unassigned) [Example D42], the results for the Ki in assay [1] and in assay [2] were 35.3 nM and 163 nM, respectively. Besides, the values for the Kd in assay [3] and in assay [4] were 9.4 nM and 59.8 nM, respectively.

Take `CN1CC[C@H](Oc2nc(C(F)(F)F)cc3c(-c4cccc([C@H](c5nncn5C)C5CCC5)c4)n[nH]c23)C1` [Example J5, 3-{3-[(R)-cyclobutyl(4-methyl-4H-1,2,4-triazol-3-yl)methyl]phenyl}-7-{[(3S)-1-methylpyrrolidin-3-yl]oxy}-5-(trifluoromethyl)-1H-pyrazolo[3,4-c]pyridine]: the inhibition constant Ki in assay [1] came to 10 nM; in assay [2], 87.1 nM. Moreover, the Kd in assay [3] came to 3.3 nM; in assay [4], 137 nM.

With `Cc1cc2c(-c3cccc([C@H](c4nncn4C)C4CCC4)c3)n[nH]c2cn1` [Example A6, 3-{3-[(R)-cyclobutyl(4-methyl-4H-1,2,4-triazol-3-yl)methyl]phenyl}-5-methyl-1H-pyrazolo[3,4-c]pyridine], the values for the Ki in assay [1] and in assay [2] were 51.5 nM and 525 nM, respectively. The Kd in assay [3] is 21.4 nM; in assay [4], 882 nM.

Take `C[C@@H](c1nc(C(F)(F)F)cc2c(-c3cccc(C4(Cc5nncn5C)COC4)c3)n[nH]c12)N1CC(F)(F)C1` (single isomer, unassigned) [Example D45]: the Ki in assay [1] was 19.9 nM; in assay [2], 80.3 nM. The Kd in assay [3] stood at 5.2 nM; in assay [4] it was 83.9 nM.

Consider `Cn1cnnc1CC1(c2cccc(-c3n[nH]c4c(CN5CCC5)nc(C(F)(F)F)cc34)c2)COC1` [Example C61, 7-[(azetidin-1-yl)methyl]-3-(3-{3-[(4-methyl-4H-1,2,4-triazol-3-yl)methyl]oxetan-3-yl}phenyl)-5-(trifluoromethyl)-1H-pyrazolo[3,4-c]pyridine], for which the Ki in assay [1] came to 53 nM; in assay [2], 232 nM. The figures for the Kd in assay [3] and in assay [4] were 12.8 nM and 99.8 nM, respectively.

On to `Cn1cnnc1CC1(c2cccc(-c3n[nH]c4c(CN5CC[C@@H](F)C5)nc(C(F)(F)F)cc34)c2)COC1` [Example C71, 7-{[(3R)-3-fluoropyrrolidin-1-yl]methyl}-3-(3-{3-[(4-methyl-4H-1,2,4-triazol-3-yl)methyl]oxetan-3-yl}phenyl)-5-(trifluoromethyl)-1H-pyrazolo[3,4-c]pyridine], for which the figures for the Ki in assay [1] and in assay [2] were 25.5 nM and 124 nM, respectively. In addition, the dissociation constant (Kd) in assay [3] amounted to 10.8 nM; in assay [4], 108 nM.

Regarding `Cn1cnnc1[C@@H](c1cccc(-c2n[nH]c3c(CN4CC[C@@H](F)C4)nc(C(F)(F)F)cc23)c1)C1CCC1` [Example C109, 3-{3-[(R)-cyclobutyl(4-methyl-4H-1,2,4-triazol-3-yl)methyl]phenyl}-7-{[(3R)-3-fluoropyrrolidin-1-yl]methyl}-5-(trifluoromethyl)-1H-pyrazolo[3,4-c]pyridine], the values for the Ki in assay [1] and in assay [2] were 48.8 nM and 442 nM, respectively. The values for the Kd in assay [3] and in assay [4] were 8.8 nM and 174 nM, respectively.

`CC(CN)c1nc(C(F)(F)F)cc2c(-c3cccc([C@H](c4nncn4C)C4CCC4)c3)n[nH]c12` (single isomer, unassigned) [Example K14]: the Ki in assay [1] was 24.8 nM; in assay [2] it was 195 nM. Besides, the Kd came out at 20.6 nM in assay [3] and 244 nM in assay [4].

As to `CN1CC[C@H](N(C)c2nc(C(F)(F)F)cc3c(-c4cccc([C@H](c5nncn5C)C5CCC5)c4)n[nH]c23)C1` [Example J12, 3-{3-[(R)-cyclobutyl(4-methyl-4H-1,2,4-triazol-3-yl)methyl]phenyl}-N-methyl-N-[(3S)-1-methylpyrrolidin-3-yl]-5-(trifluoromethyl)-1H-pyrazolo[3,4-c]pyridin-7-amine], the Ki in assay [1] is 16.1 nM; in assay [2], 118 nM. The Kd in assay [3] is 16.1 nM; in assay [4] it was 240 nM.

On to `Cn1cnnc1CC1(c2cccc(-c3n[nH]c4cnc(C5CC5)cc34)c2)COC1` [Example B4, 5-cyclopropyl-3-(3-{3-[(4-methyl-4H-1,2,4-triazol-3-yl)methyl]oxetan-3-yl}phenyl)-1H-pyrazolo[3,4-c]pyridine], for which the Ki was 73.9 nM in assay [1] and 254 nM in assay [2]. Moreover, the results for the Kd in assay [3] and in assay [4] were 58.7 nM and 578 nM, respectively.

For orientation: Ki means a dissociation constant, usually derived from enzyme kinetics or from competition with a known ligand. A word on the Kd: it is the constant that tells how readily two partners part at equilibrium.
